The source of these data is paper PMC6572135, “N-Methyl-D-glucamine–Calix[4]resorcinarene Conjugates: Self-Assembly and Biological Properties” (Molecules, 2019).

The nature of data set [1]: Tensiometry (surface tension, Du-Noüy ring), critical aggregation concentration. In kind it is physicochemical. The note with it: 25 °C. The procedure:
In the next step of the study of GCR self-assembly the tensiometry method was used. Surface tension decreases with increasing GCR-1 concentration, but above the CAC (15 mM) the slope angle of the dependence changes (Figure 2). […] Concentration point of 15 mM, at which occurs inflection of surface tension dependence, corresponds to CAC that is in good agreement with conductometric value. The tensiometric CAC value of GCR-2 (3.3 mM) is slightly different from the conductometric value (7.9 mM, Table 1). The tensiometry method is well known to fix the changes of the mutual disposition of the molecules at the water–air interface, whereas conductometry measures the number and mobility of ions in the bulk solution. The CAC values obtained for GCR-2 are lower compared to those for GCR-1. The improved ability to aggregation of GCR-2 in comparison with GCR-1 may be due higher hydrophobicity of GCR-2. The relations between the surface tension and the concentration of macrocycle solution were illustrated in Figure 8. […] The first inflection point was determined after a concentration of 10 mM, which can be correlated with the CAC value in the aqueous environment. […] The turning point of the tensiometric curve for GCR-2 can be determined as 3.3 mM that is same as in water. […]

The nature of data set [2]: Conductometry, critical aggregation concentration. In kind it is physicochemical. The note with it: water solution, 25 °C; GCR-2 in the presence of two-fold excess of MG. The procedure: Firstly, self-assembly of GCR-1 was studied by conductometric measurements (Figure 1). Specific conductivity increases proportionately with the GCR-1 concentration in water solution. Inflection on the plot appears at 14 mM, and after this critical aggregation concentration (CAC) the increment rate of conductivity reduces because the aggregates transfer charge less efficiently than monomers. Remarkably, modification of calix[4]resorcinarene by N-methyl-D-glucamine fragment facilitates self-aggregation of macrocycle in water medium (Figure 1). The CAC value for calix[4]resorcinarene (CR-1) without meglumine units at the upper rim is 20 mM that is greater than that for meglumine-modified calix[4]resorcinarene. The driving forces of intermolecular aggregates’ formation are probably hydrogen bonds between hydroxyl groups on the GCR-1 upper rim, so the presence of additional OH-groups in the meglumine group reinforces this noncovalent interaction. A stable pH value, which can be observed over a wide range of concentrations, verifies that the N-methyl-D-glucamine fragment is an effective buffer component (Figure S4). […] As a result, the aggregation of this calix[4]resorcinarene was studied in water solutions at the presence of two-fold excess of N-methyl-D-glucamine (MG). […] Specific conductivity values were measured at least three times for each concentration. […]

A short description of data set [3]: Transmission electron microscopy of aggregates. In kind it is physicochemical. The following applies: aqueous solution mixture of GCR-2 with two-fold excess of MG. As to the method:
In a mixed 1 mM GCR-2–2 mM MG system particles with a hydrodynamic diameter of 2 nm were formed, which correlates well with the size of single macrocycle molecules. In a 15 mM GCR-2–30 mM MG mixed system particles with 3.8 nm diameter were formed. Such a size approximately corresponds to double the length of a GCR-2 molecule. This indicates of formation of spherical micelles by virtue of lateral packaging of aromatic walls by head-to-head contact due to π–stacking and hydrogen bonds between neighboring GCR-2 molecules as depicted in Figure 6b. Such an aggregation mode is similar to the self-assembly behavior described for other calixarenes. The zeta-potential of obtained particles is −17.4 mV which is attributable primarily to hydroxylic groups. The formation of little spherical particles was further affirmed by TEM images (Figure 5b). In comparison with the nanostructure of GCR-1 aggregates, smaller nanostructures with a diameter of ca. 5 ± 2 nm were formed in the aqueous solution mixture of GCR-2, which was in good accordance with the DLS measurements.
TEM images were recorded on a HT7700 TEM instrument (Hitachi, Tokyo, Japan) operated at 110 kV accelerating voltage. The samples with 20 mM solutions were ultrasonicated in water for 10 min and then dispersed on 300 mesh carbon-coated copper grid.

Data set [4] has as its system B. cereus 8035. Nature of the data set: Bacteriostatic activity (MIC), dilution method. The note with it: Bacillus cereus; B. cereus 8035, bacteriostatic activity; read-out: Minimal Inhibiting Concentration (MIC). In kind it is cell-based. As to the method:
(§1) In vitro bacteriostatic and fungistatic activities of the macrocycles were evaluated against pathogenic representatives of Gram-positive bacteria (Staphylococcus aureus 209p, Bacillus cereus 8035), Gram-negative bacteria (Pseudomonas aeruginosa 9027, Escherichia coli F-50), and yeast (Trichophyton mentagrophytes var. gypseum 1773, Aspergillus niger BKMF-1119, Candida albicans 885–653). Minimal inhibitory concentrations (MICs) were estimated by conventional dilution methods for bacteria and fungi. The antibacterial and antifungal assays were performed in Hottinger broth (HiMe-dia Laboratories Pvt. Ltd. Mumbai, India) and Sabouraud dextrose broth (HiMedia Laboratories Pvt. Ltd.) (bacteria 3 × 10^5 cfu/mL and yeast 2 × 10^4 cfu/mL). The bactericidal and fungicidal activities were determined as described earlier. The tests were repeated three times.

For data set [5], the system named is S. aureus 209P. Nature of the data set: Bacteriostatic activity (MIC), dilution method. Format: cell-based. The note with it: Staphylococcus aureus, read-out: Minimal Inhibiting Concentration (MIC). As to the method:
as §1

Data set [6] deals with B. cereus 8035. Briefly: Bactericidal activity (MBC). The following applies: Bacillus cereus; B. cereus 8035, bactericidal activity; read-out: Minimal Bactericidal Concentration (MBC). Format: cell-based. As to the method: as §1
Data set [7] concerns S. aureus 209P. Nature of the data set: Bactericidal activity (MBC). In kind it is cell-based. The following applies: Staphylococcus aureus, read-out: Minimal Bactericidal Concentration (MBC). The procedure:
as §1

The test system of data set [8] is C.albicans 855–653. Briefly: Fungicidal activity (MFC). Format: cell-based. The following applies: Candida albicans; C.albicans 855–653, fungicidal activity; read-out: Minimal Fungicidal Concentration (MFC). As to the method: as §1

In brackets after ≈: the same amount, converted by molar mass. Where only a bound is given, the exact number is not on record here.

Turning to `CC1c2cc(c(O)c(CN(C)C[C@@H](O)[C@H](O)[C@@H](O)[C@@H](O)CO)c2O)C(C)c2cc(c(O)c(CN(C)C[C@@H](O)[C@H](O)[C@@H](O)[C@@H](O)CO)c2O)C(C)c2cc(c(O)c(CN(C)C[C@@H](O)[C@H](O)[C@@H](O)[C@@H](O)CO)c2O)C(C)c2cc1c(O)c(CN(C)C[C@@H](O)[C@H](O)[C@@H](O)[C@@H](O)CO)c2O` (stereo partly drawn) [GCR-2, N-methyl-D-glucaminemethyl methylcalix[4]resorcinarene], the “First inflection / turning point of the tensiometric curve” value in data set [1] (50% DMSO–50% water) is 3.3 mM. Also, the “CAC, tensiometry” value in data set [1] (water solution, GCR-2 in the presence of two-fold excess of MG) is given as 3.3 mM. Further, the “CAC, conductometry” value in data set [2] is on record as 7.9 mM. In data set [3], the “Diameter of nanostructures by TEM” value was “ca. 5 ± 2 nm”. The MIC in data set [4] was determined as 250 µM (≈ 343 µg/mL); in data set [5], 130 ± 10 µM (≈ 179 µg/mL). The MBC in data set [6] is more than 1000 µM; in data set [7], 1000 ± 80 µM (≈ 1370 µg/mL). In data set [8], the MFC was more than 500 µM.
